Common to all, as to assay type: functional
Experiment [1] deals with Staphylococcus epidermidis. The experiment can be described thus: Antimicrobial activity against Staphylococcus epidermidis SW027 expressing icaA gene assessed as enhancement of biofilm formation at subinhibitory concentration by microtiter plate assay. On the set-up: scale not given: the % may be the effect or the level left.
Experiment [2] relates to Staphylococcus epidermidis. The experiment can be described thus: Enhancement of biofilm formation Staphylococcus epidermidis SW115 at subinhibitory concentration by microtiter plate assay. On the set-up: scale not given: the % may be the effect or the level left.
For experiment [3], the system named is Staphylococcus epidermidis. The experiment can be described thus: Enhancement of biofilm formation Staphylococcus epidermidis SW098 expressing icaA gene at subinhibitory concentration by microtiter plate assay. On the set-up: scale not given: the % may be the effect or the level left.
Experiment [4] has as its system Staphylococcus epidermidis. The experiment can be described thus: Enhancement of biofilm formation Staphylococcus epidermidis SW021 at subinhibitory concentration by microtiter plate assay. On the set-up: scale not given: the % may be the effect or the level left.
Experiment [5] relates to Staphylococcus epidermidis. The experiment is described as follows: Enhancement of biofilm formation Staphylococcus epidermidis SW082 at subinhibitory concentration by microtiter plate assay. More on the design: scale not given: the % may be the effect or the level left.
Experiment [6] relates to Staphylococcus epidermidis. The experiment can be described thus: Enhancement of biofilm formation Staphylococcus epidermidis SW032 expressing icaA gene at subinhibitory concentration by microtiter plate assay. On the set-up: scale not given: the % may be the effect or the level left.
The subject of experiment [7] is Staphylococcus epidermidis. The experiment is described as follows: Enhancement of biofilm formation Staphylococcus epidermidis SW120 at subinhibitory concentration by microtiter plate assay. More on the design: scale not given: the % may be the effect or the level left.
Experiment [8] has as its system Staphylococcus epidermidis. The experiment can be described thus: Enhancement of biofilm formation Staphylococcus epidermidis SW058 expressing icaA gene at subinhibitory concentration by microtiter plate assay. On the set-up: scale not given: the % may be the effect or the level left.
For experiment [9], the system named is Staphylococcus epidermidis. The experiment can be described thus: Enhancement of biofilm formation Staphylococcus epidermidis SW015 at subinhibitory concentration by microtiter plate assay. More on the design: scale not given: the % may be the effect or the level left.
In experiment [10] the test system is Staphylococcus epidermidis. The experiment is described as follows: Enhancement of biofilm formation Staphylococcus epidermidis SW099 at subinhibitory concentration by microtiter plate assay. More on the design: scale not given: the % may be the effect or the level left.
Experiment [11] concerns Staphylococcus epidermidis. The experiment is described as follows: Enhancement of biofilm formation Staphylococcus epidermidis SW036 at subinhibitory concentration by microtiter plate assay. More on the design: scale not given: the % may be the effect or the level left.
Experiment [12] concerns Staphylococcus epidermidis. The experiment is described as follows: Enhancement of biofilm formation Staphylococcus epidermidis SW061 expressing icaA gene at subinhibitory concentration by microtiter plate assay. On the set-up: scale not given: the % may be the effect or the level left.
In experiment [13] the test system is Staphylococcus epidermidis. The experiment is described as follows: Enhancement of biofilm formation Staphylococcus epidermidis SW085 expressing icaA gene at subinhibitory concentration by microtiter plate assay. More on the design: scale not given: the % may be the effect or the level left.
The test system of experiment [14] is Staphylococcus epidermidis. The experiment can be described thus: Enhancement of biofilm formation Staphylococcus epidermidis SW071 at subinhibitory concentration by microtiter plate assay. More on the design: scale not given: the % may be the effect or the level left.
Experiment [15] relates to Staphylococcus epidermidis. The experiment can be described thus: Enhancement of biofilm formation Staphylococcus epidermidis ATCC 35984 expressing icaA gene at subinhibitory concentration by microtiter plate assay. More on the design: scale not given: the % may be the effect or the level left.
For experiment [16], the system named is Staphylococcus epidermidis. The experiment can be described thus: Enhancement of biofilm formation Staphylococcus epidermidis SW070 at subinhibitory concentration by microtiter plate assay. On the set-up: scale not given: the % may be the effect or the level left.
Experiment [17] deals with Staphylococcus epidermidis. The experiment is described as follows: Enhancement of biofilm formation Staphylococcus epidermidis SW045 expressing icaA gene at subinhibitory concentration by microtiter plate assay. On the set-up: scale not given: the % may be the effect or the level left.
Experiment [18] has as its system Staphylococcus epidermidis. The experiment is described as follows: Enhancement of biofilm formation Staphylococcus epidermidis SW067 expressing icaA gene at subinhibitory concentration by microtiter plate assay. More on the design: scale not given: the % may be the effect or the level left.
Experiment [19] relates to Staphylococcus epidermidis. The experiment is described as follows: Enhancement of biofilm formation Staphylococcus epidermidis SW126 expressing icaA gene at subinhibitory concentration by microtiter plate assay. On the set-up: scale not given: the % may be the effect or the level left.
Experiment [20] deals with Staphylococcus epidermidis. The experiment is described as follows: Enhancement of biofilm formation Staphylococcus epidermidis SW104 expressing icaA gene at subinhibitory concentration by microtiter plate assay. On the set-up: scale not given: the % may be the effect or the level left.
In experiment [21] the test system is Staphylococcus epidermidis. The experiment can be described thus: Enhancement of biofilm formation Staphylococcus epidermidis SW088 at subinhibitory concentration by microtiter plate assay. More on the design: scale not given: the % may be the effect or the level left.
Experiment [22] has as its system Staphylococcus epidermidis. The experiment is described as follows: Antimicrobial activity against Staphylococcus epidermidis SW036.
The subject of experiment [23] is Staphylococcus epidermidis. The experiment can be described thus: Antimicrobial activity against Staphylococcus epidermidis SW029 expressing icaA gene.
Experiment [24] relates to Staphylococcus epidermidis. The experiment is described as follows: Enhancement of biofilm formation Staphylococcus epidermidis SW029 expressing icaA gene at subinhibitory concentration by microtiter plate assay. On the set-up: scale not given: the % may be the effect or the level left.

In brackets after ≈: the same amount, converted by molar mass. Bounds are passed on as bounds.

By MIC is commonly meant the smallest concentration in the dilution series that meets the test's criterion for growth inhibition. Regarding `CC[C@H]1OC(=O)[C@H](C)[C@@H](O[C@H]2C[C@@](C)(OC)[C@@H](O)[C@H](C)O2)[C@H](C)[C@@H](O[C@@H]2O[C@H](C)C[C@H](N(C)C)[C@H]2O)[C@](C)(O)C[C@@H](C)CN(C)[C@H](C)[C@@H](O)[C@]1(C)O` [AZITHROMYCIN], the Activity amounted to 49.1% in [1]; 184.3% in [2]; 104% in experiment [3]; 39.8% in [4]; 59.8% in experiment [5]; 71.8% in [6]. In addition, the Activity in experiment [7] was determined as 75.8%; in experiment [8] it was 37.6%; in experiment [9], 57.3%; in experiment [10] it was 47%; in experiment [11], 289.2%; in experiment [12], 58.4%. Further, the Activity in experiment [13] is listed as 298.3%; in experiment [14], 277.8%; in [15], 2.5%; in experiment [16], 92.3%; in experiment [17], 33.4%; in experiment [18], 128.8%. Also, the Activity amounted to 56.4% in experiment [19], 48.1% in [20], 117.2% in experiment [21] and 157.9% in experiment [24]. The MIC in experiment [22] and in experiment [23] was greater than 128 µg/mL in each case.
`CC[C@H]1OC(=O)[C@H](C)[C@@H](O[C@H]2C[C@@](C)(OC)[C@@H](O)[C@H](C)O2)[C@H](C)[C@@H](O[C@@H]2O[C@H](C)C[C@H](N(C)C)[C@H]2O)[C@](C)(OC)C[C@@H](C)C(=O)[C@H](C)[C@@H](O)[C@]1(C)O` [CLARITHROMYCIN]: the Activity in experiment [1] worked out at 62.3%; in experiment [2], 164%; in experiment [3] it was 112.8%; in experiment [4] it was 54.6%; in [5] it was 62.8%; in experiment [6], 71.8%. The Activity in [7] is listed as 50.6%; in experiment [8] it was 54.9%; in [9], 78.6%; in experiment [10], 38.7%; in experiment [11], 292%; in experiment [12] it was 46.3%. The Activity is given as 275.8% in experiment [13]; 147.2% in experiment [14]; -3.9% in experiment [15]; 155.6% in experiment [16]; 32.2% in [17]; 140.2% in experiment [18]. Moreover, the Activity stood at 50.3% in experiment [19], 51.5% in experiment [20], 201.5% in [21] and 146.4% in [24]. The figures for the MIC in [22] and in experiment [23] were 16 µg/mL (≈ 21.4 µM) and greater than 128 µg/mL, respectively.
